These results are taken from patent US20230126987A1, “METHODS FOR TREATING CYTOKINE STORM SYNDROME AND RELATED DISEASES” (Generos Biopharma Ltd., priority 2020, published 2023).

Each structure is given as a SMILES string.

The test system of one assay is H5N1 virus. The conditions noted are these: co-administration with zanamivir, compared to antiviral treatment alone; cited from earlier work.
The test system of assay [1] is LPS-induced pro-inflammatory cytokines. Briefly: LPS-induced sepsis model in mice, plasma cytokines by ELISA. Format: in vivo, Balb/c mice. The conditions noted are these: i.p. 1 hour before LPS 10 mg/kg i.p., DEX 3 mg/kg, Nib1 5 mg/kg, 4 hours after LPS. As for the experimental part:
FIGS. 2A and 2B show the cytokine levels of TNFα and IL-6, respectively, in serum as measured by an ELISA kit. […] Whole blood was collected at 4 hours after LPS injection, and the plasma was extracted for ELISA measurement. *indicates P<0.05, **indicates P<0.01, *** indicates P<0.001, and **** indicates P<0.0001.
After 1 hour, all the animals were exposed to lethal dose of LPS (10 mg/kg, 2 mg/mL, i.p., Solarbio L8880). All animals were sacrificed 4 hours after LPS injection for tissue and whole blood collection.
FIGS. 2A and 2B show the cytokine levels of TNFα and IL-6, respectively, in the serum as measured by an ELISA kit. […] Whole blood was collected at 4 hours after LPS injection and plasma was extracted for ELISA measurement. *indicates P<0.05, **indicates P<0.01, *** indicates P<0.001, and **** indicates P<0.0001.
In general terms: An ELISA detects its analyte on a solid surface through an enzyme-linked reagent.

A further assay deals with human PBMC. Briefly: LPS-induced cytokine release in human PBMC, Luminex multiplex cytokine profiling. It counts as cell-based. Particulars: 10 µM 1 h before LPS 100 ng/ml for 4 h; supernatant; relative to DMSO = 100%.
Assay [2] concerns LPS-induced pro-inflammatory cytokines. The experiment in a line: Repetitive low dose LPS challenge sepsis-like persistent inflammation model in mice, whole blood cell cytokine RT-qPCR. Format: in vivo, Balb/c mice. Particulars: LPS 10 µg/mouse i.p. daily for 4 days, oral DEX 3 mg/kg or Nib1 0.6 mg/kg daily, whole blood cells RT-qPCR. The text has this:
FIGS. 4A, 4B, and 4C show the cytokine levels of IL-1β, IL-6, and TNFα, respectively, in the whole blood cells as measured by RT-qPCR. […] At the end of experiment, whole blood cells were collected and the total RNA was extracted for RT-qPCR measurement of the cytokine mRNA. *indicates P<0.05, **indicates P<0.01, *** indicates P<0.001.
At the end of the experiment, all animals were sacrificed, and whole blood cells were purified by centrifugation and subjected to standard RT-qPCR detection of IL-6 and TNFα mRNA levels according to the manufacturer’s instructions.
A general note: In qPCR the cycle at which signal appears reflects the starting amount.

Assay [3] shares this test system. The experiment in a line: LPS-induced acute lung injury model in mice, BALF cytokines by ELISA. The conditions noted are these: airway LPS 1 µg day 1.
In a further assay the test system is STAT5. Briefly: STAT5 inhibition in Jurkat cells, immunoblotting of IFNβ-induced STAT5 phosphorylation (pY694).
A further assay relates to H2N2 influenza virus. Particulars: intraperitoneally on days 4 to 10 after exposure to H2N2 influenza virus, following the onset of illness; cited from earlier work.
Assay [4] concerns RSV-infected lung epithelial cells. Particulars: cited from earlier work.
The mark [5] stands for this setting: 3 mg/kg po qd 4 days, compared to DMSO-treated group, p<0.05.

On to `Nc1ccc(O)c(C(=O)O)c1` [Mesalamine], for which, in the assay with H5N1 virus, the cellular infiltrate result is “diminished cellular infiltrate” and the survival entry is “improved survival”.
As for `O=c1[nH]c2ccccc2n1C1CCN(CCCC(c2ccc(F)cc2)c2ccc(F)cc2)CC1` [pimozide, 1-[1-[4,4-bis(4-fluorophenyl)butyl]-4-piperidinyl]-1,3-dihydro-2H-benzimidazole-2-one], the “plasma level of TNFα” value in assay [1] (vs DMSO (DEX p<0.0001, Nib1 p<0.01)) was “significantly reduced”. Besides, in assay [1] (vs DMSO (DEX p<0.01, Nib1 p<0.001)), the “plasma level of IL-6” value was “significantly reduced”. Moreover, in the assay on human PBMC, the “secretion of IL4” value is “significantly reduced”, the “secretion of IL17A” value is on record as “significantly reduced”, the “secretion of IL23” value was “significantly reduced” and the “secretion of IL-1β” value is reported as “significantly reduced”. For the same compound, the “secretion of IL-6” value with human PBMC was “significantly reduced”. In assay [2] (TNFα returned to basal level), the TNFα level result is reported as “no difference was detected”. In addition, the IL-1β level entry in assay [2] (vs DMSO (DEX p<0.05, Nib1 p<0.001)) was “significantly reduced”. For the same compound, the IL-6 level entry in assay [2] (vs DMSO (both p<0.05)) was “significantly reduced”. Further, the “level of IL-6 in bronchoalveolar lavage fluid” value in assay [3] (0.6 mg/kg po qd 4 days, vs DMSO, p<0.001) is “significantly reduced”. In assay [3] (0.6 mg/kg po qd 4 days, vs DMSO, p<0.01), the “level of TNFα in bronchoalveolar lavage fluid” value is recorded as “significantly reduced”. Moreover, the “reduction of the activation of STAT5 (phosphorylation)” value in the assay on STAT5 (Jurkat cells pretreated with 10 µM for 1 hour, then IFNβ 50 ng/ml for 30 min) is recorded as “more than 50%”. Besides, in the assay on STAT5 (Jurkat cells treated with 50 µM, IFNβ 50 ng/ml for 30 min), the Phospho-STAT5 signal entry is “completely undetectable”.
In the case of `CC(=O)OCC(=O)[C@@]1(O)[C@H](C)C[C@H]2[C@@H]3CCC4=CC(=O)C=C[C@]4(C)[C@@]3(F)[C@@H](O)C[C@@]21C` [DEX, dexamethasone acetate], in assay [3] (setting [5]), the “reduction of IL-6 level in bronchoalveolar lavage fluid” value was “about 50%” and the “reduction of TNFα level in bronchoalveolar lavage fluid” value was “about 50%”.
`Cc1ccc(C)c(OCCCC(C)(C)C(=O)O)c1` [gemfibrozil]: the survival entry with H2N2 influenza virus is “significantly increased survival”.
In the case of `CCCCC/C=C/C=C1/C(=O)C=C[C@@H]1C/C=C\CCCC(=O)O` [15d-PGJ2], the “production of IL-1α, IL-6, and TNF cytokines, CXCL8 and CCL5 chemokines, and ICAM-1” value in assay [4] was “decreased production”.
